These results are taken from PMC6156427, “Characterization of NGFFYamide Signaling in Starfish Reveals Roles in Regulation of Feeding Behavior and Locomotory Systems” (Frontiers in Endocrinology, 2018).

No end group written: not given here.

In assay [1] the test system is tube foot preparations from A. rubens. Briefly: in vitro pharmacology, tube foot preparations. Set-up: species or system Asterias rubens. The following applies: read-out: half maximal response concentration (EC50), tonic contraction; tonic contraction of tube feet, 10^−9-10^−6 M; six measurements; 11°C; four-parameter curve. As to the method: Here, NGFFYamide was tested in vitro to investigate its effect on apical muscle and tube foot preparations from A. rubens, using the same methods reported previously when testing other neuropeptides ([53], [54], [56]). Briefly, the apical muscle was dissected from the aboral body wall of starfish arms and cut into segments approximately 1 cm in length and cotton ligatures were tied at each end. Tube foot preparations were obtained by dissecting from starfish arms a small square-shaped piece of ambulacral body wall containing a single tube foot podium and its associated ampullae. […] A relaxant effect of NGFFYamide on apical muscle preparations was expressed as a percentage reversal of the maximal contraction induced by 10^−6 M ACh. […] For phasic contractions, peak amplitude and frequency were quantified over a 5-min recording period and expressed as mean amplitude and mean peaks/minute, respectively. For in vitro characterization of the effects of NGFFYamide on tube foot preparations, a concentration-response curve was fitted with a four-parameter curve and the EC50 value was calculated based on six measurements. The in vitro effect of NGFFYamide on basal tone was analyzed by one-way ANOVA using Bonferroni's multiple comparisons post-hoc test. […]

Assay [2] deals with NPS/CCAP-type receptor in the sea urchin S. purpuratus. The following applies: ref [8]; cited from earlier work. From the text: Evidence that NG peptides are orthologs of vertebrate NPS-type neuropeptides was provided by analysis of the sequence of the NG peptide precursor in the cephalochordate B. floridae, which comprises two copies of a peptide (SFRNGVG) that is identical to the N-terminal region of NPS ([…]) ([34]). However, definitive proof was provided with the discovery that an NPS/CCAP-type receptor in the sea urchin S. purpuratus is activated by the neuropeptide NGFFFamide ([8]). Thus, a bilaterian neuropeptide family comprising NPS in vertebrates, NG peptides in invertebrate deuterostomes and ...

Assay [3] deals with esophagus preparations from the sea urchin E. esculentus. The following applies: Echinus esculentus; ref [35]; cited from earlier work. The text has this:
(§1) Having analyzed both the anatomical expression pattern and bioactivity of NGFFYamide in the starfish A. rubens, it is of interest to make comparisons with what is known about the physiological roles of NG peptides in other echinoderms. The first NG peptide to be identified in an echinoderm was NGIWYamide, which was isolated from the sea cucumber A. japonicus on account of its effect in causing contraction of longitudinal body wall muscles in this species ([42]).

The subject of assay [4] is tube foot preparations from the sea urchin E. esculentus. The following applies: Echinus esculentus; ref [35]; cited from earlier work.
Description: as §1

The test system of a further assay is rodents. The following applies: ref [76]; cited from earlier work. The text has this:
(§2) Thus, nothing was known about its physiological roles when NPS was first identified. […] Furthermore, evidence that the anxiolytic effect ...

Assay [5] relates to "orphan" G-protein coupled receptor GPR154. The following applies: ref [65]; cited from earlier work.
Description: as §2

The subject of the next assay is mice. The following applies: ref [9], cited from earlier work.
Description: as §2

Another assay has as its system mammals. The following applies: ref [15], [18], [72]–[75]; cited from earlier work.
Description: as §2

A further assay has as its system rats. The following applies: ref [9]; cited from earlier work.
Description: as §2

Assay [6] has as its system oocyte maturation and spawning. The following applies: A. japonicus; ref [44]; cited from earlier work.
Description: as §1

The test system of a further assay is intestine preparations. The following applies: A. japonicus; ref [43]; cited from earlier work.
Description: as §1

Assay [7] deals with body wall mutable collagenous tissue. The following applies: A. japonicus; ref [64]; cited from earlier work.
Description: as §1

Assay [8] relates to longitudinal body wall muscle. The following applies: A. japonicus; ref [43]; cited from earlier work.
Description: as §1

For a further assay, the system named is tentacle preparations. The following applies: A. japonicus; ref [43]; cited from earlier work.
Description: as §1

In the next assay the test system is crustaceans. The following applies: ref [25]; cited from earlier work. The text has this:
(§3) Furthermore, there is substantial evidence that CCAP is one of several neuropeptides that regulate shedding of the exoskeleton (ecdysis) in arthropods. Thus, a dramatic increase in circulating levels of CCAP has been observed in two crustacean species during ecdysis ([26]).

The subject of a further assay is oviduct. The following applies: Locusta migratoria; ref [82]; cited from earlier work.
Description: as §3

The subject of a further assay is moth Manduca sexta. The following applies: ref [28], [78], [79]; cited from earlier work.
Description: as §3

In another assay the test system is gut. The following applies: cockroaches; ref [32], [83]; cited from earlier work.
Description: as §3

In a further assay the test system is cockroach P. americana. The following applies: ref [33]; cited from earlier work.
Description: as §3

Assay [9] deals with apical muscle preparations from A. rubens. The following applies: ACh 10^−6 M; ref [54], [57]; cited from earlier work. The procedure: Investigation of the physiological roles of NG peptides in echinoderms was advanced most recently with the discovery of the precursor of the NG peptide NGFFYamide (NGFFY-NH2) in the starfish A. rubens. Research on neuropeptide systems in this species led to the discovery of the first echinoderm neuropeptides to be sequenced—the SALMFamide neuropeptides S1 and S2 ([45]). […] Here, NGFFYamide was tested in vitro to investigate its effect on apical muscle and tube foot preparations from A. rubens, using the same methods reported previously when testing other neuropeptides ([53], [54], [56]). Briefly, the apical muscle was dissected from the aboral body wall of starfish arms and cut into segments approximately 1 cm in length and cotton ligatures were tied at each end. […] Thus, NGFFYamide precursor-expressing cells are present in the coelomic lining of the apical muscle, a thickening of the longitudinally orientated body wall muscle layer located in an aboral and sagittal position in each arm.

The subject of assay [10] is tube foot preparations from A. rubens. The following applies: ACh 10^−6 M; ref [54], [57]; cited from earlier work. The procedure: Here, NGFFYamide was tested in vitro to investigate its effect on apical muscle and tube foot preparations from A. rubens, using the same methods reported previously when testing other neuropeptides ([53], [54], [56]). Briefly, the apical muscle was dissected from the aboral body wall of starfish arms and cut into segments approximately 1 cm in length and cotton ligatures were tied at each end. […] Thus, application of NGFFYamide triggered phasic contractions of tube feet that were superimposed upon an increase in basal tone. Furthermore, there was concentration-dependency in the effect of NGFFYamide on both the amplitude and the frequency of the phasic contractions. This action of NGFFYamide on tube feet is interesting because it is the first neuropeptide that we have ...

With NGFFY-NH2 [NGFFYamide], the EC50 in [1] came out at 14 nM.
NGFFF-NH2 [NGFFFamide]: in assay [2], the “activation of NPS/CCAP-type receptor” value is given as “activated”. Further, in assay [3], the “contraction of esophagus preparations” value is “contraction”. Moreover, the “contraction of tube foot preparations” value in [4] is “contraction”.
For “SFRNGVGTGMKKTSFQRAKS [NPS, 20-residue neuropeptide first discovered in rodents]”, the “food intake (increase, one study)” value in the assay with rodents is “increase food intake”. Moreover, the “ligand of GPR154” value in [5] is “endogenous ligand”. In the assay with mice (mice exposed to stressful conditions), the anxiolytic-like effects result is “anxiolytic-like effects”. Moreover, the locomotor activity result in the assay with mice is on record as “increases locomotor activity”. Further, the “food intake (inhibition)” value in the assay with mammals was “inhibition of food intake”. Moreover, the wakefulness entry with rats is “increases wakefulness”.
With NGIWYamide, the “oocyte maturation and spawning” value in assay [6] was “induction of oocyte maturation and spawning”. The “spontaneous phasic contractions of intestine preparations” value in the assay on intestine preparations is listed as “inhibition”. The “effect on body wall mutable collagenous tissue” value in [7] is recorded as “stiffening”. Moreover, the “contraction of longitudinal body wall muscle” value in assay [8] was “tonic contraction”. Moreover, in the assay with tentacle preparations, the “contraction of tentacle preparations” value is listed as “tonic contraction”.
On to “PFCNAFTGC-NH2 [CCAP, 9-residue neuropeptide first discovered in the crustacean Carcinus maenas]”, for which the cardioexcitatory effect result in the assay on crustaceans is “cardioexcitatory”. The oviduct contractions entry in the assay with oviduct is reported as “induction of oviduct contractions”. In addition, the ecdysis motor program result in the assay with moth Manduca sexta is reported as “activates an ecdysis motor program”. Besides, the “gut contraction and secretion of digestive enzymes” value in the assay with gut was “stimulation of gut contraction and secretion of digestive enzymes”. In addition, the locomotor activity entry in the assay with cockroach P. americana is “inhibition of locomotor activity”.
For the compound `CC(=O)OCC[N+](C)(C)C` [acetylcholine], in assay [9], the “contractant of starfish apical muscle” value is “known contractant”. The “contractant of starfish tube feet” value in [10] is on record as “known contractant”.
